According to patent US20240252677A1, “ONE-COMPONENT DELIVERY SYSTEM FOR NUCLEIC ACIDS” (The Trustees of the University of Pennsylvania, priority 2021, published 2024):

Key:
HEK293T cells = test: In vitro Luc-mRNA transfection, luciferase luminescence expression in HEK293T cells; type: cell-based, human; parameters: unit not given here; conditions: Table 16; HEK 293T cells, 125 ng/well, n=3
In short: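 HEK293T cells were transfected with nucleoside-modified firefly luciferase mRNA at 125 ng/well delivered in the test particles. TransIT and MC3-based LNPs at equal mRNA dose served as comparators. After 24 h (18-20 h in some runs) at 37° C the cells were lysed, and luciferase luminescence was read on a luminometer, in triplicate.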

BALB/c mice = test: In vivo mRNA delivery in mice with DNPs, whole-body bioluminescence imaging (IVIS)
liver = test: In vivo mRNA delivery, IVIS imaging of organs: liver; parameters: species or system mice; key to Organs with luminescence: liver: strong: Strong meant the luminescence intensity in that organ was relatively high, compared to other organs; weak: Weak meant the luminescence intensity in that organ was relatively low, compared to other organs; conditions: Table 17; mice, IVIS, 4-6 h after injection; intensity relative to other organs
[1] = Stability of DNPs by DLS after storage at 5° C.; type: physicochemical; parameters: key to Original size distribution type (DLS curve) / Size distribution type (DLS curve): U: DLS curve showed unimodal size distribution; B: DLS curve showed bimodal size distribution; M: DLS curve showed multimodal size distribution; conditions: for pH Sample: DNPs: IAJD 4.0 mg/mL + Luc-mRNA 0.1 mg/mL, injection in acetate buffer pH 4.00; for PDI / Size (d, nm) / Original size distribution type (DLS curve): IAJD 4.0 mg/mL + Luc-mRNA 0.1 mg/mL; for PDI / Size (d, nm): acetate buffer; for Original size distribution type (DLS curve): before storage, acetate buffer pH 4.00
In short: (§1)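 DNPs in acetate buffer sized by DLS after storage at 5 °C. Stability ranked Excellent, Good or Not stable according to retention, shrinkage or growth of original size and narrowing or broadening of size distribution.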

[2] = Stability of DNPs by DLS after storage at 5° C.; type: physicochemical; parameters: key: Excellent: the original sizes and distribution types remained almost the same after storage; Good: the original sizes and distribution types changed slightly (size difference was less than 100 nm) or the original size remained almost the same but the DLS curve showed more size distributions after storage
In short: as §1

[3] = Table 20, nonsymmetric IAJDs and MC3-Luc-mRNA

Row | SMILES | pH Sample [1] | Original size distribution type (DLS curve) [1] | Size distribution type (DLS curve) ([1]; after 21 days at 5° C.) | PDI ([1]; after 21 days at 5° C.) | Size (d, nm) ([1]; after 21 days at 5° C.) | Ranking of stability ([2]; after 21 days at 5° C.) | Luminescence (HEK293T cells) | In vivo activity (total flux, p/s) (BALB/c mice; Table 19, nonsymmetric IAJDs) | Organs with luminescence: liver (liver) | In vivo activity (total flux, p/s) (BALB/c mice; [3]) | further results
1 | CCCCCCCCCCCCCCCOc1cc(COC(=O)CCCN2CCN(C)CC2)cc(OCC(CC)CCCC)c1 (centres unmarked) [IAJD 135, 3-((2-Ethylhexyl)oxy)-5-(pentadecyloxy)benzyl 4-(4-methylpiperazin-1-yl)butanoate] | 4.95 | (U) |  |  |  |  | 432 | 1.22 × 10^7 p/s | liver (strong), |  | Size distribution type (DLS curve) ([1]; after 27 days at 5° C.): (U); PDI ([1]; after 27 days at 5° C.): 0.278; Size (d, nm) ([1]; after 27 days at 5° C.): 92 nm; Ranking of stability ([2]; after 27 days at 5° C.): Excellent
2 | CCCCCCCCCCCCCCCCCOc1cc(COC(=O)CCCN2CCN(C)CC2)cc(OCCCCCCCCCCCCCCC)c1 [IAJD 151, 3-(Heptadecyloxy)-5-(pentadecyloxy)benzyl 4-(4-methylpiperazin-1-yl)butanoate] | 4.57 | (U) |  |  |  |  | 9,310 | 3.12 × 10^7 p/s | liver (weak), |  | Size distribution type (DLS curve) ([1]; after 35 days at 5° C.): (U); PDI ([1]; after 35 days at 5° C.): 0.240; Size (d, nm) ([1]; after 35 days at 5° C.): 271 nm; Ranking of stability ([2]; after 35 days at 5° C.): Excellent
3 | CCCCCCCCCCCCCCCCCOc1cc(COC(=O)CCCN2CCN(C)CC2)cc(OCCCCCCCCCCC)c1 [IAJD 126, 3-(Heptadecyloxy)-5-(undecyloxy)benzyl 4-(4-methylpiperazin-1-yl)butanoate] | 4.48 | (U) |  |  |  |  | 675 | 3.21 × 10^7 p/s | liver (weak), |  | Size distribution type (DLS curve) ([1]; after 70 days at 5° C.): (U); PDI ([1]; after 70 days at 5° C.): 0.239; Size (d, nm) ([1]; after 70 days at 5° C.): 154 nm; Ranking of stability ([2]; after 70 days at 5° C.): Excellent

Continued, in another order:

Row | pH Sample [1] | Original size distribution type (DLS curve) [1] | Size distribution type (DLS curve) ([1]; after 21 days at 5° C.) | PDI ([1]; after 21 days at 5° C.) | Size (d, nm) ([1]; after 21 days at 5° C.) | Ranking of stability ([2]; after 21 days at 5° C.) | SMILES | Luminescence (HEK293T cells) | In vivo activity (total flux, p/s) (BALB/c mice; Table 19, nonsymmetric IAJDs) | Organs with luminescence: liver (liver) | In vivo activity (total flux, p/s) (BALB/c mice; [3]) | further results
4 | 4.58 | (U) | (U) | 0.261 | 261 nm | Excellent | CCCCCCCCCCCCCCCCCCOc1cc(COC(=O)CCCN2CCN(CCO)CC2)cc(OCCCCCCCCCCCCC)c1 [IAJD 178, 3-(Octadecyloxy)-5-(tridecyloxy)benzyl 4-(4-(2-hydroxyethyl)piperazin-1-yl)butanoate] | 235,419 | 4.05 × 10^8 p/s | liver (weak), | 4.05 × 10^8 p/s | total flux luminescence (BALB/c mice; mice, in vivo Luc-mRNA transfection): 4.05×10^8 p/s; in vivo activity, times higher than symmetric IAJD with the same headgroup (BALB/c mice; nonsymmetric vs symmetric alkyl chains (178 vs 99 (18/18))): 90.2 times; in vivo activity, times lower than of MC3 (BALB/c mice; total flux luminescence vs MC3): 4.2 times
5 | 4.76 | (B) | (B) | 0.218 | 153 nm | Excellent | CCCCCCCCCCCCCCCCCCOc1cc(COC(=O)CCCN2CCN(C)CC2)cc(OCCCCCCCCCCCCC)c1 [IAJD 177, 3-(Octadecyloxy)-5-(tridecyloxy)benzyl 4-(4-methylpiperazin-1-yl)butanoate] | 4,343 | 9.18 × 10^7 p/s | liver (strong), | 9.18 × 10^7 p/s | 
